Experimental findings from patent publication US12252488B2 (Nimbus Saturn, Inc., priority 2021, dated 2025) are described below.

A value given as a limit tells only on which side of the number the result lay.

For this test, the target named is T1, HPK1 (Homo sapiens, UniProt Q92918).
T1 construct: purchased Invitrogen
T1 sequence (Q92918 whole entry): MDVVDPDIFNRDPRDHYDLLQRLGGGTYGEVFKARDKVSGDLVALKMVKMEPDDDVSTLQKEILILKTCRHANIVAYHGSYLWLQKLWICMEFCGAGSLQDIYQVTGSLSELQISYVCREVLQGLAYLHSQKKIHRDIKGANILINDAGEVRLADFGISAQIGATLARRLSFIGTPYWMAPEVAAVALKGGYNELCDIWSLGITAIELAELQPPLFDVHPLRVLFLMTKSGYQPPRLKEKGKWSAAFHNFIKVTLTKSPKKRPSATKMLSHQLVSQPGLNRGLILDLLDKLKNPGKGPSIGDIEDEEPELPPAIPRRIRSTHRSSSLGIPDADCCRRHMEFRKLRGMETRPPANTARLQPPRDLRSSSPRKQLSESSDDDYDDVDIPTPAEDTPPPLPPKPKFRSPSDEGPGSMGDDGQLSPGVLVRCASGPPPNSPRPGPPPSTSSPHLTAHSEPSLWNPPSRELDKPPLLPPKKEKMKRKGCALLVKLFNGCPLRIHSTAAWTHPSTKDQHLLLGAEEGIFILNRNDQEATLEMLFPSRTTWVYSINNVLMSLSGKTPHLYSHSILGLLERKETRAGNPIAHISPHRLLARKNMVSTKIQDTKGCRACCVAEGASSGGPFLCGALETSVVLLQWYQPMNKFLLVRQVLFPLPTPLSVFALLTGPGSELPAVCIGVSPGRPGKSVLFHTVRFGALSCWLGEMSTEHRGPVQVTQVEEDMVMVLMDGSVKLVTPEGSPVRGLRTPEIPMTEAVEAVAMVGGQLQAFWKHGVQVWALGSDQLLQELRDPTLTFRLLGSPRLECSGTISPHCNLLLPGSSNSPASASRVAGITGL
Put plainly: HPK1 biochemical enzyme assay (microfluidic mobility shift assay). The following applies: 1000 uM (1 mM) ATP; Caliper mobility shift; 1.5 nM HPK1; 30 min preincubation; read-out: HPK1 1000UMATP caliper IC50. The procedure, abridged:
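Microfluidic mobility-shift readout with 1.5 nM HPK1 in pH 7.4 buffer; compounds (ten-point curves, top 3 μM final) preincubated 30 min with enzyme/substrate. Reaction started with 1 mM ATP and 1 μM substrate plus 5 mM MgCl2, run 60 min at RT. IC50 values binned into activity classes.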
For the compound `O=c1[nH]ccc2nc(-c3ccc(CN4CCCCC4)cc3F)cc(Nc3ccc(N4CCC(O)CC4)cn3)c12` [I-127], the IC50 (usually the concentration that gives 50% inhibition) fell in the range of 100 to 1000 nM.
Consider `CCNC(=O)C(C)(C)c1ccc(Nc2cc(-c3cc(C(C)C)ccc3F)nc3cc[nH]c(=O)c23)nc1` [I-128, N-ethyl-2-[6-[[2-(2-fluoro-5-isopropyl-phenyl)-5-oxo-6H-1,6-naphthyridin-4-yl]amino]-3-pyridyl]-2-methyl-propanamide], for which the concentration for half-maximal inhibition (IC50) lay within 100 to 1000 nM.
Take `CC(C)c1ccc(F)c(-c2cc(Nc3ccc(N4[C@@H](C)COC[C@@H]4C)cn3)c3c(=O)[nH]ccc3n2)c1` [I-129, 4-[[5-[(3S,5S)-3,5-dimethyl-morpholin-4-yl]-2-pyridyl]amino]-2-(2-fluoro-5-isopropyl-phenyl)-6H-1,6-naphthyridin-5-one]: the 50% inhibitory concentration (IC50) was 100 to 1000 nM.
Turning to `CC1CCCCN1C(=O)c1ccc(-c2cc(Nc3ccc(N4CCC(O)CC4)cn3)c3c(=O)[nH]ccc3n2)c(F)c1` (stereo not drawn) [I-130, 2-[2-fluoro-4-(2-methyl-piperidine-1-carbonyl)phenyl]-4-[[5-(4-hydroxy-1-piperidyl)-2-pyridyl]amino]-6H-1,6-naphthyridin-5-one], the IC50 was no more than 100 nM.
For the compound `CN1CCN(C(=O)c2ccc(-c3cc(Nc4ccc(N5CCC(O)CC5)cn4)c4c(=O)[nH]ccc4n3)c(F)c2)CC1` [I-131, 2-[2-fluoro-4-(4-methyl-piperazine-1-carbonyl)phenyl]-4-[[5-(4-hydroxy-1-piperidyl)-2-pyridyl]amino]-6H-1,6-naphthyridin-5-one], the IC50 lay within 100 to 1000 nM.
Consider `N#CC1CCN(C(=O)c2ccc(-c3cc(Nc4ccc(N5CCC(O)CC5)cn4)c4c(=O)[nH]ccc4n3)c(F)c2)CC1` [I-132, 1-[3-fluoro-4-[4-[[5-(4-hydroxy-1-piperidyl)-2-pyridyl]amino]-5-oxo-6H-1,6-naphthyridin-2-yl]benzoyl] piperidine-4-carbonitrile], for which the 50% inhibitory concentration (IC50) lay within 100 to 1000 nM.
As for `COC1CCCN(C(=O)c2ccc(-c3cc(Nc4ccc(N5CCC(O)CC5)cn4)c4c(=O)[nH]ccc4n3)c(F)c2)C1` (stereo not drawn) [I-133, 2-[2-fluoro-4-(3-methoxy-piperidine-1-carbonyl)phenyl]-4-[[5-(4-hydroxy-1-piperidyl)-2-pyridyl]amino]-6H-1,6-naphthyridin-5-one], the IC50 is no more than 100 nM.
For the compound `O=C(O)c1ccc(-c2cc(Nc3ccc(N4CCC(O)CC4)cn3)c3c(=O)[nH]ccc3n2)c(F)c1` [I-134, 3-Fluoro-4-[4-[[5-(4-hydroxy-1-piperidyl)-2-pyridyl]amino]-5-oxo-6H-1,6-naphthyridin-2-yl]benzoic Acid], the IC50 was no more than 100 nM.
Regarding `CC1CCCN(C(=O)c2ccc(-c3cc(Nc4ccc(N5CCC(O)CC5)cn4)c4c(=O)[nH]ccc4n3)c(F)c2)C1` (stereo not drawn) [I-135, 2-[2-fluoro-4-(3-methyl-piperidine-1-carbonyl)phenyl]-4-[[5-(4-hydroxy-1-piperidyl)-2-pyridyl]amino]-6H-1,6-naphthyridin-5-one], the half-inhibitory concentration (IC50) is no more than 100 nM.
Regarding `COC1CCN(C(=O)c2ccc(-c3cc(Nc4ccc(N5CCC(O)CC5)cn4)c4c(=O)[nH]ccc4n3)c(F)c2)CC1` [I-136, 2-[2-fluoro-4-(4-methoxy-piperidine-1-carbonyl)phenyl]-4-[[5-(4-hydroxy-1-piperidyl)-2-pyridyl]amino]-6H-1,6-naphthyridin-5-one], the IC50 was no more than 100 nM.
Consider `O=C(c1ccc(-c2cc(Nc3ccc(N4CCC(O)CC4)cn3)c3c(=O)[nH]ccc3n2)c(F)c1)N1CC2CCC1C2` (stereo not drawn) [I-137, 2-[4-(3-azabicyclo [2.2.1]heptane-3-carbonyl) 2-fluoro-phenyl]-4-[[5-(4-hydroxy-1-piperidyl)-2-pyridyl]amino]-6H-1,6-naphthyridin-5-one], for which the IC50 was no more than 100 nM.
In the case of `O=C(c1ccc(-c2cc(Nc3ccc(N4CCC(O)CC4)cn3)c3c(=O)[nH]ccc3n2)c(F)c1)N1CC2C(C1)C2(F)F` (stereo not drawn) [I-138, 2-[4-(6,6-difluoro-3-azabicyclo [3.1.0]hexane-3-carbonyl)-2-fluoro-phenyl]-4-[[5-(4-hydroxy-1-piperidyl)-2-pyridyl]amino]-6H-1,6-naphthyridin-5-one], the half-inhibitory concentration (IC50) lay within 100 to 1000 nM.
Consider `O=C(NC1CCCCC1)c1ccc(-c2cc(Nc3ccc(N4CCC(O)CC4)cn3)c3c(=O)[nH]ccc3n2)c(F)c1` [I-139, N-cyclohexyl-3-fluoro-4-[4-[[5-(4-hydroxy-1-piperidyl)-2-pyridyl]amino]-5-oxo-6H-1,6-naphthyridin-2-yl] benzamide], for which the IC50 was no more than 100 nM.
With `O=C(c1ccc(-c2cc(Nc3ccc(N4CCC(O)CC4)cn3)c3c(=O)[nH]ccc3n2)c(F)c1)N1CCC(O)CC1` [I-140, 2-[2-fluoro-4-(4-hydroxy-piperidine-1-carbonyl)phenyl]-4-[[5-(4-hydroxy-1-piperidyl)-2-pyridyl]amino]-6H-1,6-naphthyridin-5-one], the IC50 was no more than 100 nM.
Regarding `O=C(c1ccc(-c2cc(Nc3ccc(N4CCC(O)CC4)cn3)c3c(=O)[nH]ccc3n2)c(F)c1)N1CCCCC1CO` (stereo not drawn) [I-141, 2-[2-fluoro-4-[2-(hydroxy-methyl)piperidine-1-carbonyl]phenyl]-4-[[5-(4-hydroxy-1-piperidyl)-2-pyridyl]amino]-6H-1,6-naphthyridin-5-one], the IC50 was greater than 1000 nM.
Turning to `O=C(c1ccc(-c2cc(Nc3ccc(N4CCC(O)CC4)cn3)c3c(=O)[nH]ccc3n2)c(F)c1)N1CC2CCC(C1)O2` [I-142, 2-[2-fluoro-4-(8-oxa-3-azabicyclo [3.2.1]octane-3-carbonyl)phenyl]-4-[[5-(4-hydroxy-1-piperidyl)-2-pyridyl]amino]-6H-naphthyridin-5-one], the half-inhibitory concentration (IC50) was no more than 100 nM.
Take `CN(C(=O)c1ccc(-c2cc(Nc3ccc(N4CCC(O)CC4)cn3)c3c(=O)[nH]ccc3n2)c(F)c1)C1CCCCC1` [I-143, N-cyclohexyl-3-fluoro-4-[4-[[5-(4-hydroxy-1-piperidyl)-2-pyridyl]amino]-5-oxo-6H-1,6-naphthyridin-2-yl]-N-methyl-benzamide]: the half-maximal inhibitory concentration (IC50) was greater than 1000 nM.
For the compound `O=c1[nH]ccc2nc(N3CCC3)cc(Nc3ccc(N4CCC(O)CC4)cn3)c12` [I-144, 2-(azetidin-1-yl)-4-[[5-(4-hydroxy-1-piperidyl)-2-pyridyl]amino]-6H-1,6-naphthyridin-5-one], the IC50 was greater than 1000 nM.
The figure for `O=C(c1ccc(-c2cc(Nc3ccc(N4CCC(O)CC4)cn3)c3c(=O)[nH]ccc3n2)c(F)c1)N1CCCC(O)C1` (stereo not drawn) [I-145, 2-[2-fluoro-4-(3-hydroxy-piperidine-1-carbonyl)phenyl]-4-[[5-(4-hydroxy-1-piperidyl)-2-pyridyl]amino]-6H-1,6-naphthyridin-5-one] is greater than 1000 nM; for `Cc1c[nH]c(=O)c2c(Nc3ccc(N4CCC(O)CC4)cn3)cc(-c3ccc(C(=O)N4CCCCC4)cc3F)nc12` [I-146, 2-[2-fluoro-4-(piperidine-1-carbonyl)phenyl]-4-[[5-(4-hydroxy-1-piperidyl)-2-pyridyl]amino]-8-methyl-6H-1,6-naphthyridin-5-one] it is 100 to 1000 nM; for `O=C(c1ccc(-c2cc(Nc3ccc(N4CCC(O)CC4)cn3)c3c(=O)[nH]ccc3n2)c(F)c1)N1CCCC1CO` (stereo not drawn) [I-147, 2-[2-fluoro-4-[2-(hydroxy-methyl)pyrrolidine-1-carbonyl]phenyl]-4-[[5-(4-hydroxy-1-piperidyl)-2-pyridyl]amino]-6H-1,6-naphthyridin-5-one] it is 100 to 1000 nM.
